Consider 15 compounds from patent US10000474B2, “Histone deacetylase inhibitors and uses thereof” (MUSC FOUNDATION FOR RESEARCH DEVELOPMENT, priority 2014, dated 2018).

Counter-ions that a name gives are not always drawn.

Format in all cases: biochemical
What all share (conditions): test concentration not given; average of triplicate

The target of experiment [1] is T1, Recombinant human HDAC2 (Homo sapiens, UniProt Q92769).
T1 construct: purchased BPS Biosciences
As to the kind of experiment: HDAC inhibitory assay, HDAC2 (Boc-Lys(Ac)-AMC substrate). The method, then: (§1) The compounds of Examples 1-12 and 14-16 were evaluated for their ability to act as inhibitors of human HDAC. The compound of Example 13 was not tested. Recombinant human HDAC1, HDAC2, HDAC3/NcoR2, HDAC5, HDAC6, HDAC8, HDAC9, HDAC10 and HDAC11 were purchased from BPS Biosciences. Recombinant human HDAC4 and HDAC7 were purchased from Millipore. The substrate Boc-Lys(Ac)-AMC and Boc-Lys(Tfa)-AMC were purchased from Bachem. The substrate Ac-RHK(Ac)K(Ac)-AMC was purchased from Enzo Life Sciences. Due to the different specific activities of each isoform, different amount of enzyme was used in each isoform screening assay. In these assays, trichostatin A (TSA), suberanilohydroxamic acid and diphenylacetohydroxamic acid (DPAHA) were employed as positive controls. All determinations were carried out in triplicate, and reported values were the average of these determinations, which in no case varied by more than 5%.
Then 25 μl of the Boc-Lys(Ac)-AMC substrate (50 μM final concentration) was added and incubated at 37° C. for 30-60 min, and followed by adding 50 μl of developer (1 mg/ml trypsin and 1 μM TSA). The last step was reading the samples in a SpectraMax M5 plate reader (Molecular Devices) at an excitation wavelength of 360 nm and an emission wavelength of 460 nm.

Experiment [2] deals with T2, Recombinant human HDAC7 (Homo sapiens, UniProt Q8WUI4).
T2 construct: purchased Millipore
T2 sequence (Q8WUI4 1-952): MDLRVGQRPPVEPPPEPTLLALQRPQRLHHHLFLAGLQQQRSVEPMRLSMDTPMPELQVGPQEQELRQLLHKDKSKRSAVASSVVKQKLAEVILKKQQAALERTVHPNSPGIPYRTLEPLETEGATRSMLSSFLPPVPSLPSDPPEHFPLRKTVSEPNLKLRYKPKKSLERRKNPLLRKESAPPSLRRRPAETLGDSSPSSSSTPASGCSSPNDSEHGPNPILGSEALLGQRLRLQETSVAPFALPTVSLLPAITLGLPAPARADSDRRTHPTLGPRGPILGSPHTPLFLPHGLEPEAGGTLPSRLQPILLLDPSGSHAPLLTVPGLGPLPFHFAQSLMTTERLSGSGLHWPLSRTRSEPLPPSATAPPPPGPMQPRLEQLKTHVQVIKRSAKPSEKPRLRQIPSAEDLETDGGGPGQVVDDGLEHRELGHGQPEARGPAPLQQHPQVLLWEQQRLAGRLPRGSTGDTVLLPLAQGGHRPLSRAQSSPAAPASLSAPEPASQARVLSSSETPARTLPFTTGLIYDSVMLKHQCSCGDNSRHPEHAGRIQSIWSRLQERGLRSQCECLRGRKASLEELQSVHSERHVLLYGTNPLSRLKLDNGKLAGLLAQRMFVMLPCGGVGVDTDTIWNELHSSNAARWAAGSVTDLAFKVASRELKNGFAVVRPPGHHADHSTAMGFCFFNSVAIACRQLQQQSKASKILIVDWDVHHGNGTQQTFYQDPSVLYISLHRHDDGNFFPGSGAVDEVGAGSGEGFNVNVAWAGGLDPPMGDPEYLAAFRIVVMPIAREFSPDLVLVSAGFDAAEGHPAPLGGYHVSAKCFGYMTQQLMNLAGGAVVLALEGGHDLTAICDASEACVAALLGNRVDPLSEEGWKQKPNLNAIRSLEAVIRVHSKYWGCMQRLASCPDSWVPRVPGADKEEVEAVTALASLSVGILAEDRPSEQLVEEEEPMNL
Briefly: HDAC inhibitory assay, HDAC7 (Boc-Lys(Tfa)-AMC substrate). How it is done:
as §1
(§2) For evaluating the inhibition of class IIa HDACs (HDAC4, HDAC5, HDAC7 and HDAC9) and class IV HDAC (HDAC11), 10 μl of test samples were first incubated with 1 ng HDAC4 (specific activity=15400 pmol/min/μg), 5 ng HDAC5 (specific activity=2521 pmol/min/μg), 1 ng HDAC7 (specific activity=26340 pmol/min/μg), 5 ng HDAC9 (specific activity=3000 pmol/min/μg), and 500 ng HDAC11 (specific activity=1.8 pmol/min/μg) respectively. Then 25 μl of the Boc-Lys(Tfa)-AMC substrate (50 μM final concentration) was added and incubated at 37° C. for 30-60 min, and followed by adding 50 μl of developer. The last step was to read the samples in a SpectraMax M5 plate reader (Molecular Devices) at an excitation wavelength of 360 nm and an emission wavelength of 460 nm.

The target in experiment [3] is T3, Recombinant human HDAC8 (Homo sapiens, UniProt Q9BY41).
T3 construct: purchased BPS Biosciences
T3 sequence (Q9BY41 1-377): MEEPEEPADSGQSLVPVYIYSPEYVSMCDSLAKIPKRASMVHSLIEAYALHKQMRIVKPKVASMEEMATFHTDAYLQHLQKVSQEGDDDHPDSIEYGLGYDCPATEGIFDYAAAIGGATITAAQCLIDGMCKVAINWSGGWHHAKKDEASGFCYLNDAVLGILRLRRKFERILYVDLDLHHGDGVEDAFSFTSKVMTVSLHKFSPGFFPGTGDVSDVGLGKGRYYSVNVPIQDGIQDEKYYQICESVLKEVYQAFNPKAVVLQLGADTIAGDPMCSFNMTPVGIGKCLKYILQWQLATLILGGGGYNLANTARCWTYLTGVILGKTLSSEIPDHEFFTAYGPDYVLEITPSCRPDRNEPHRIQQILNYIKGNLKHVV
As to the kind of experiment: HDAC inhibitory assay, HDAC8 (Ac-RHK(Ac)K(Ac)-AMC substrate). The method, then:
as §1
For evaluating the inhibition of HDAC8, 10 μl of test samples were first incubated with 25 ng HDAC8 (specific activity 298 pmol/min/μg). Then 25 μl of the fluorogenic peptide from p53 residues 379-382 (Ac-RHK(Ac)K(Ac)-AMC, 50 μM final concentration) was added and incubated at 37° C. for 30-60 min, and followed by adding 50 μl of developer (1 mg/ml trypsin and 1 uM TSA). The last step was to read the samples in a SpectraMax M5 plate reader (Molecular Devices) at an excitation wavelength of 360 nm and an emission wavelength of 460 nm.

The target in experiment [4] is T4, Recombinant human HDAC9 (Homo sapiens, UniProt Q9UKV0).
T4 construct: purchased BPS Biosciences
Briefly: HDAC inhibitory assay, HDAC9 (Boc-Lys(Tfa)-AMC substrate). The method, then: as §1, §2

T1 sequence (Q92769 whole entry): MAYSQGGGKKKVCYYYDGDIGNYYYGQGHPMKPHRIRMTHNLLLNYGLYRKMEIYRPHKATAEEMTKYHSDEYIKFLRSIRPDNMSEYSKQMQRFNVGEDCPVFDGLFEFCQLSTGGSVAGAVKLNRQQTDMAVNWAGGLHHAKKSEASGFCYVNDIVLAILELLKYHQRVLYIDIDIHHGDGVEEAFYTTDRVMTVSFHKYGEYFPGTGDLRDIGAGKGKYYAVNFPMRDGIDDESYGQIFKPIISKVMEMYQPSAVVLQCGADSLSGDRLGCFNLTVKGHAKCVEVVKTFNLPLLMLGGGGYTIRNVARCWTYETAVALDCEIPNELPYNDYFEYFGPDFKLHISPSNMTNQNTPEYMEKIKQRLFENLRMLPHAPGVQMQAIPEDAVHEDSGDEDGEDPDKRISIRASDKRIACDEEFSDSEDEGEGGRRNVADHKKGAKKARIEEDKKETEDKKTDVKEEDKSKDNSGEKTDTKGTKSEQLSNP
T4 sequence (Q9UKV0 whole entry): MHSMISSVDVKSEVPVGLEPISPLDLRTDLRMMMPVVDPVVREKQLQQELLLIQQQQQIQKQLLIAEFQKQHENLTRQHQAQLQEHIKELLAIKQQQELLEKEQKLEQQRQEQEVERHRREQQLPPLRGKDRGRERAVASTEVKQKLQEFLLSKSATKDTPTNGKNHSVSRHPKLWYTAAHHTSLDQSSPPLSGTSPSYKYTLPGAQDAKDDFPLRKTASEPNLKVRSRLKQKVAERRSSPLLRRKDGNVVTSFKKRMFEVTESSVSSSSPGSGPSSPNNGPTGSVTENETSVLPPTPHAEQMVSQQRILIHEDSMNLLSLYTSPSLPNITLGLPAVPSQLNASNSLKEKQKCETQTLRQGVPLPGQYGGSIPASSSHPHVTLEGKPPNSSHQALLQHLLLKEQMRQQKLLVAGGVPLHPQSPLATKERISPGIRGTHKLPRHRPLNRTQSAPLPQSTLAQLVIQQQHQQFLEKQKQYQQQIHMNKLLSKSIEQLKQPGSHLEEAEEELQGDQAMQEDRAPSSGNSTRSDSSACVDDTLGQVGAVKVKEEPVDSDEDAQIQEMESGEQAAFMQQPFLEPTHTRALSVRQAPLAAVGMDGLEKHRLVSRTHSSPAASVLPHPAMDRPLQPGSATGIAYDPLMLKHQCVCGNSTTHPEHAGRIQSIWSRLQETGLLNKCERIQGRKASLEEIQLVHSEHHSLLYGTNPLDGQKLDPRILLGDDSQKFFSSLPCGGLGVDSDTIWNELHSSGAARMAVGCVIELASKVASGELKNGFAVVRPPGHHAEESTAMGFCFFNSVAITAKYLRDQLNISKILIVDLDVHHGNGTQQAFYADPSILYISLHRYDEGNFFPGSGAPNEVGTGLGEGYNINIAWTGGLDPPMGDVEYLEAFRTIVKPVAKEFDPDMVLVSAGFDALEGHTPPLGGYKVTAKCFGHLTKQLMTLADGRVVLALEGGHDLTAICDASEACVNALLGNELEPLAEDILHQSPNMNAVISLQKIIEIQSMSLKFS

For the compound `O=C(Nc1ccccc1)c1coc(-c2ccccc2O)n1` [Example 1, 2-(2-Hydroxyphenyl)-N-phenyloxazole-4-carboxamide], the “HDAC 2 inhibitory activity” value in experiment [1] was found to be 29.5%. Besides, in experiment [2], the “HDAC 7 inhibitory activity” value turned out to be 1.3%. The “HDAC 8 inhibitory activity” value in experiment [3] came out at 0%. The “HDAC 9 inhibitory activity” value in experiment [4] was 20.5%.

With `O=C(NC(c1ccccc1)c1ccccc1)c1coc(-c2ccccc2O)n1` [Example 2, N-Benzhydryl-2-(2-hydroxyphenyl)oxazole-4-carboxamide], in experiment [1], the “HDAC 2 inhibitory activity” value turned out to be 54.1%. Further, the “HDAC 7 inhibitory activity” value in experiment [2] is 9.2%. Further, in experiment [3], the “HDAC 8 inhibitory activity” value came out at 23.3%. In addition, the “HDAC 9 inhibitory activity” value in experiment [4] stood at 33.3%.

With `O=C(NCC(c1ccccc1)c1ccccc1)c1coc(-c2ccccc2O)n1` [Example 3, N-(2,2-Diphenylethyl)-2-(2-hydroxyphenyl)oxazole-4-carboxamide], in experiment [1], the “HDAC 2 inhibitory activity” value is on record as 34.8%. Further, in experiment [2], the “HDAC 7 inhibitory activity” value is given as 4.1%. Also, the “HDAC 8 inhibitory activity” value in experiment [3] turned out to be 16.7%. Also, in experiment [4], the “HDAC 9 inhibitory activity” value turned out to be 21.6%.

`O=C(NCCC(c1ccccc1)c1ccccc1)c1coc(-c2ccccc2O)n1` [Example 4, N-(3,3-Diphenylpropyl)-2-(2-hydroxyphenyl)oxazole-4-carboxamide]: the “HDAC 2 inhibitory activity” value in experiment [1] was found to be 28.7%. The “HDAC 7 inhibitory activity” value in experiment [2] came to 0.7%. The “HDAC 8 inhibitory activity” value in experiment [3] is on record as 7.2%. For the same compound, the “HDAC 9 inhibitory activity” value in experiment [4] was found to be 28.2%.

With `O=C(Nc1ccc(-c2ccccc2)cc1)c1coc(-c2ccccc2O)n1` [Example 5, N-([1,1′-Biphenyl]-4-yl)-2-(2-hydroxyphenyl)oxazole-4-carboxamide], the “HDAC 2 inhibitory activity” value in experiment [1] turned out to be 31.9%. Also, in experiment [2], the “HDAC 7 inhibitory activity” value stood at 19.4%. The “HDAC 8 inhibitory activity” value in experiment [3] was 7.2%. Also, the “HDAC 9 inhibitory activity” value in experiment [4] is listed as 32.4%.

With `O=C(NCc1ccc(-c2ccccc2)cc1)c1coc(-c2ccccc2O)n1` [Example 6, N-([1,1′-Biphenyl]-4-ylmethyl)-2-(2-hydroxyphenyl)oxazole-4-carboxamide], the “HDAC 2 inhibitory activity” value in experiment [1] is 52.2%. Further, in experiment [2], the “HDAC 7 inhibitory activity” value came to 1.4%. In addition, the “HDAC 8 inhibitory activity” value in experiment [3] stood at 17.9%. Further, the “HDAC 9 inhibitory activity” value in experiment [4] was 20.8%.

Consider `O=C(NCc1cccc2ccccc12)c1coc(-c2ccccc2O)n1` [Example 7, 2-(2-Hydroxyphenyl)-N-(naphthalen-1-ylmethyl)oxazole-4-carboxamide], for which, in experiment [1], the “HDAC 2 inhibitory activity” value is on record as 45.2%. For the same compound, in experiment [2], the “HDAC 7 inhibitory activity” value stood at 3.8%. Also, in experiment [3], the “HDAC 8 inhibitory activity” value was 10.6%. For the same compound, the “HDAC 9 inhibitory activity” value in experiment [4] is given as 15.5%.

`O=C(NCCc1c[nH]c2ccccc12)c1coc(-c2ccccc2O)n1` [Example 8, N-(2-(1H-Indol-3-yl)ethyl)-2-(2-hydroxyphenyl)oxazole-4-carboxamide]: in experiment [1], the “HDAC 2 inhibitory activity” value came to 36.0%. Further, the “HDAC 7 inhibitory activity” value in experiment [2] is given as 3.8%. The “HDAC 8 inhibitory activity” value in experiment [3] came to 7.7%. In experiment [4], the “HDAC 9 inhibitory activity” value is reported as 18.4%.

On to `O=C(NCCCCN1C(=O)c2ccccc2C1=O)c1coc(-c2ccccc2O)n1` [Example 9, N-(4-(1,3-Dioxoisoindolin-2-yl)butyl)-2-(2-hydroxyphenyl)oxazole-4-carboxamide], for which, in experiment [1], the “HDAC 2 inhibitory activity” value is 25.4%. The “HDAC 7 inhibitory activity” value in experiment [2] amounted to 1.1%. For the same compound, the “HDAC 8 inhibitory activity” value in experiment [3] was 9.6%. Moreover, the “HDAC 9 inhibitory activity” value in experiment [4] was determined as 16.4%.

Turning to `O=C(NCCCCNC(=O)C(c1ccccc1)c1ccccc1)c1coc(-c2ccccc2O)n1` [Example 10, N-(4-(2,2-Diphenylacetamido)butyl)-2-(2-hydroxyphenyl)oxazole-4-carboxamide], the “HDAC 2 inhibitory activity” value in experiment [1] is recorded as 0%. For the same compound, the “HDAC 7 inhibitory activity” value in experiment [2] was found to be 2.2%. In experiment [3], the “HDAC 8 inhibitory activity” value turned out to be 0%. In experiment [4], the “HDAC 9 inhibitory activity” value was determined as 9.0%.

Take `O=C(NCCCCNC(=S)NCCC(c1ccccc1)c1ccccc1)c1coc(-c2ccccc2O)n1` [Example 11, N-(4-(3-(3,3-Diphenylpropyl)thioureido)butyl)-2-(2-hydroxyphenyl)oxazole-4-carboxamide]: in experiment [1], the “HDAC 2 inhibitory activity” value is reported as 1.3%. In addition, the “HDAC 7 inhibitory activity” value in experiment [2] amounted to 21.9%. Also, the “HDAC 8 inhibitory activity” value in experiment [3] was determined as 0%. Moreover, in experiment [4], the “HDAC 9 inhibitory activity” value came to 70.2%.

With `O=C(NCCCCNCCC(c1ccccc1)c1ccccc1)c1coc(-c2ccccc2O)n1` [Example 12, N-(4-((3,3-Diphenylpropyl)amino)butyl)-2-(2-hydroxyphenyl)oxazole-4-carboxamide hydrochloride], the “HDAC 2 inhibitory activity” value in experiment [1] is given as 19.7%. In addition, the “HDAC 7 inhibitory activity” value in experiment [2] amounted to 0%. Further, the “HDAC 8 inhibitory activity” value in experiment [3] turned out to be 14.0%. Moreover, the “HDAC 9 inhibitory activity” value in experiment [4] is listed as 16.4%.

Consider `O=C(O)c1ccc(CNC(=O)c2coc(-c3ccccc3O)n2)cc1` [Example 14, 4-((2-(2-Hydroxyphenyl)oxazole-4-carboxamido)methyl)benzoic acid], for which the “HDAC 2 inhibitory activity” value in experiment [1] was found to be 56.5%. Further, the “HDAC 7 inhibitory activity” value in experiment [2] came to 9.3%. Moreover, the “HDAC 8 inhibitory activity” value in experiment [3] is 20.0%. Moreover, the “HDAC 9 inhibitory activity” value in experiment [4] is given as 26.3%.

`O=C(Nc1ccccc1)c1ccc(CNC(=O)c2coc(-c3ccccc3O)n2)cc1` [Example 15, 2-(2-Hydroxyphenyl)-N-(4-(phenylcarbamoyl)benzyl)oxazole-4-carboxamide]: the “HDAC 2 inhibitory activity” value in experiment [1] is on record as 41.3%. The “HDAC 7 inhibitory activity” value in experiment [2] was 9.9%. Besides, the “HDAC 8 inhibitory activity” value in experiment [3] was determined as 0%. In addition, the “HDAC 9 inhibitory activity” value in experiment [4] is given as 24.3%.

Regarding `O=C(CNC(=O)c1coc(-c2ccccc2O)n1)Nc1ccccc1` [Example 16, 2-(2-Hydroxyphenyl)-N-(2-oxo-2-(phenylamino)ethyl)oxazole-4-carboxamide], the “HDAC 2 inhibitory activity” value in experiment [1] is listed as 32.0%. Moreover, in experiment [2], the “HDAC 7 inhibitory activity” value worked out at 0%. For the same compound, the “HDAC 8 inhibitory activity” value in experiment [3] is recorded as 15.0%. The “HDAC 9 inhibitory activity” value in experiment [4] is listed as 14.2%.
